# According to ChEMBL document CHEMBL1201862, “PubChem BioAssay data set” (2004):
#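 The compound was tested at five concentrations on cells cultured in 96-well plates, with a 48-hour exposure period. GI50: concentration for 50% inhibition of growth.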 Calls of active or inactive are those of the source. Rule as the data show it: active = GI50 up to about 1.1 µM and inactive = higher.
# Tests used:
# Assay in all cases: growth of human tumour cells (NCI), 48 h
# [1] = test system: NCI/ADR-RES
# [2] = test system: UO-31
# [3] = test system: SW-620
# [4] = test system: HOP-62
# [5] = test system: HCC 2998
# [6] = test system: HCT-116
# [7] = test system: HCT-15
# [8] = test system: Hs-578T
# [9] = test system: MDA-MB-231
# [10] = test system: TK-10
# [11] = test system: IGROV-1
# [12] = test system: SNB-19
# [13] = test system: SN12C
# [14] = test system: OVCAR-4
# [15] = test system: A549
# [16] = test system: EKVX
# [17] = test system: OVCAR-8
# [18] = test system: SF-295
# [19] = test system: T47D
# [20] = test system: NCI-H226
# [21] = test system: HT-29
# [22] = test system: MDA-N
# [23] = test system: CAKI-1
# [24] = test system: UACC-257
# [25] = test system: HOP-92
# [26] = test system: Malme-3M
# [27] = test system: OVCAR-5
# [28] = test system: MDA-MB-435
# [29] = test system: SF-539
# [30] = test system: COLO 205
# [31] = test system: SK-MEL-2
# [32] = test system: SR
# [33] = test system: NCI-H23
# [34] = test system: MCF7
# [35] = test system: U-251
# [36] = test system: KM12
# [37] = test system: NCI-H522
# [38] = test system: A498
# [39] = test system: ACHN
# [40] = test system: K562
# [41] = test system: SF-268
# [42] = test system: UACC-62
# [43] = test system: DU-145
# [44] = test system: OVCAR-3
# [45] = test system: RPMI-8226
# [46] = test system: LOX IMVI
# [47] = test system: M14
# [48] = test system: 786-0
# [49] = test system: RXF 393
# [50] = test system: SK-MEL-5
# [51] = test system: BT-549
# [52] = test system: CCRF-CEM
# [53] = test system: HL-60
# [54] = test system: MOLT-4
# [55] = test system: NCI-H460
smiles,measurement,setting,value
COc1cccc(-c2ccc3c4c2O[C@H]2c5[nH]c6ccccc6c5C[C@@]5(O)[C@@H](C3)N(CC3CC3)CC[C@]425)c1,GI50,[1],2.07 µM (inactive)
same,GI50,[2],1.72 µM (inactive)
same,GI50,[3],1.93 µM (inactive)
same,GI50,[4],1.74 µM (inactive)
same,GI50,[5],1.53 µM (inactive)
same,GI50,[6],1.63 µM (inactive)
same,GI50,[7],1840 nM
same,GI50,[8],1.49 µM (inactive)
same,GI50,[9],140 nM (active)
same,GI50,[10],1.72 µM (inactive)
same,GI50,[11],1.64 µM (inactive)
same,GI50,[12],2.05 µM (inactive)
same,GI50,[13],1.67 µM (inactive)
same,GI50,[14],1.71 µM (inactive)
same,GI50,[15],1.77 µM (inactive)
same,GI50,[16],3.86 µM (inactive)
same,GI50,[17],1.65 µM (inactive)
same,GI50,[18],1.71 µM (inactive)
same,GI50,[19],2.1 µM (inactive)
same,GI50,[20],6.84 µM (inactive)
same,GI50,[21],1.7 µM (inactive)
same,GI50,[22],1.85 µM (inactive)
same,GI50,[23],2.1 µM (inactive)
same,GI50,[24],1.74 µM (inactive)
same,GI50,[25],1.37 µM (inactive)
same,GI50,[26],1.5 µM (inactive)
same,GI50,[27],7.08 µM (inactive)
same,GI50,[28],1.77 µM (inactive)
same,GI50,[29],1.78 µM (inactive)
same,GI50,[30],1.81 µM (inactive)
same,GI50,[31],1.69 µM (inactive)
same,GI50,[32],1.76 µM (inactive)
same,GI50,[33],2.21 µM (inactive)
same,GI50,[34],1.69 µM (inactive)
same,GI50,[35],1.77 µM (inactive)
same,GI50,[36],1.85 µM (inactive)
same,GI50,[37],1.15 µM (inactive)
same,GI50,[38],2.19 µM (inactive)
same,GI50,[39],1.63 µM (inactive)
same,GI50,[40],1.9 µM (inactive)
same,GI50,[41],1.61 µM (inactive)
same,GI50,[42],1.67 µM (inactive)
same,GI50,[43],2.54 µM (inactive)
same,GI50,[44],1.9 µM (inactive)
same,GI50,[45],2.18 µM (inactive)
same,GI50,[46],1.72 µM (inactive)
same,GI50,[47],1.81 µM (inactive)
same,GI50,[48],1.7 µM (inactive)
same,GI50,[49],1.66 µM (inactive)
same,GI50,[50],1.94 µM (inactive)
same,GI50,[51],4.83 µM (inactive)
same,GI50,[52],3.29 µM (inactive)
same,GI50,[53],1.38 µM (inactive)
same,GI50,[54],820 nM (active)
same,GI50,[55],1.79 µM (inactive)
